Patent US10457691B2, “Macrocyclic kinase inhibitors and uses thereof” (Dana-Farber Cancer Institute, Inc., priority 2014, dated 2019)

Tests used:
Assay type in all cases: biochemical
Conditions in all cases: read-out: Activity of the protein kinase when treated with compound I-1 (% control)
[1] = biological target: CAMK1 (Homo sapiens, UniProt Q14012); assay: Protein kinase assay ([γ-32P] ATP), CAMK1
Protocol: (§1) In another set of experiments, the activities of the compounds described herein against various protein kinases were determined according to the methods reported in Hastie et al., Nature Protocols, 2006, 1, 968-971.
(§2) Enzyme dilution buffer. This buffer consisted of 50 mM Tris-HCl, pH 7.5, 0.1 mM EGTA, 1 mg ml^−1 bovine serum albumin and 0.1% (vol/vol) 2-mercaptoethanol.
(§3) 10× concentrated assay buffer. An assay buffer of 500 mM Tris-HCl, pH 7.5, 1 mM EGTA, and 100 mM magnesium acetate was used for assay of a wide variety of protein kinases. In some experiments, other cofactors were included (e.g., calcium ions and calmodulin were included for assay of calcium-calmodulindependent protein kinases).
(§4) 1 mM [γ-^32P] ATP. The specific activity of the [γ-^32P] ATP solution was 1×10^5 to 1×10^6 c.p.m. per nmol depending on what was needed to produce an optimal signal/noise ratio. […] To measure the concentration of ATP, a sample of such a stock solution was diluted to 20 μM, and the absorbance of the diluted sample was measured at 259 nm. The absorbance of a 20-μM stock solution of ATP at 259 nm was about 0.31. […] ATP to produce a radioactivity of 1×10^5 to 1×10^6 c.p.m. per nmol. […]
(§5) 13) Measure radioactivity in the samples by Cerenkov counting (e.g., without liquid scintillation fluid) in a liquid scintillation counter using a “^32P program”. […]

[2] = biological target: DYRK2 (Homo sapiens, UniProt Q92630); assay: Protein kinase assay ([γ-32P] ATP), DYRK2
Protocol: as §1, §2, §3, §4, §5

[3] = biological target: EPH-B4 (Homo sapiens, UniProt P54760); assay: Protein kinase assay ([γ-32P] ATP), EPH-B4
Protocol: as §1, §2, §3, §4, §5

[4] = biological target: Aurora A (Homo sapiens, UniProt O14965); assay: Protein kinase assay ([γ-32P] ATP), Aurora A
Protocol: as §1, §2, §3, §4, §5

[5] = biological target: IRR (Homo sapiens, UniProt P14616); assay: Protein kinase assay ([γ-32P] ATP), IRR
Protocol: as §1, §2, §3, §4, §5

[6] = biological target: ZAP70 (Homo sapiens, UniProt P43403); assay: Protein kinase assay ([γ-32P] ATP), ZAP70
Protocol: as §1, §2, §3, §4, §5

[7] = biological target: VEG-FR (Homo sapiens, UniProt P17948); assay: Protein kinase assay ([γ-32P] ATP), VEG-FR
Protocol: as §1, §2, §3, §4, §5

[8] = biological target: MARK2 (Homo sapiens, UniProt Q7KZI7); assay: Protein kinase assay ([γ-32P] ATP), MARK2
Protocol: as §1, §2, §3, §4, §5

[9] = biological target: MARK4 (Homo sapiens, UniProt Q96L34); assay: Protein kinase assay ([γ-32P] ATP), MARK4
Protocol: as §1, §2, §3, §4, §5

[10] = biological target: MNK2 (Homo sapiens, UniProt Q9HBH9); assay: Protein kinase assay ([γ-32P] ATP), MNK2
Protocol: as §1, §2, §3, §4, §5

[11] = biological target: WNK1 (Homo sapiens, UniProt Q9H4A3); assay: Protein kinase assay ([γ-32P] ATP), WNK1
Protocol: as §1, §2, §3, §4, §5

[12] = biological target: RSK1 (Homo sapiens, UniProt Q15418); assay: Protein kinase assay ([γ-32P] ATP), RSK1
Protocol: as §1, §2, §3, §4, §5

[13] = biological target: DYRK3 (Homo sapiens, UniProt O43781); assay: Protein kinase assay ([γ-32P] ATP), DYRK3
Protocol: as §1, §2, §3, §4, §5

[14] = biological target: PIM1 (Homo sapiens, UniProt P11309); assay: Protein kinase assay ([γ-32P] ATP), PIM1
Protocol: as §1, §2, §3, §4, §5

[15] = biological target: BRK (Homo sapiens, UniProt Q13882); assay: Protein kinase assay ([γ-32P] ATP), BRK
Protocol: as §1, §2, §3, §4, §5

[16] = biological target: IRAK4 (Homo sapiens, UniProt Q9NWZ3); assay: Protein kinase assay ([γ-32P] ATP), IRAK4
Protocol: as §1, §2, §3, §4, §5

[17] = biological target: CDK2-Cyclin A (Homo sapiens, UniProt P24941); assay: Protein kinase assay ([γ-32P] ATP), CDK2-Cyclin A
Protocol: as §1, §2, §3, §4, §5

[18] = 0.1 μM of compound I-1, DMSO control = 100%
[19] = 1 μM of compound I-1, DMSO control = 100%

Chain of BRK (Q13882 whole entry): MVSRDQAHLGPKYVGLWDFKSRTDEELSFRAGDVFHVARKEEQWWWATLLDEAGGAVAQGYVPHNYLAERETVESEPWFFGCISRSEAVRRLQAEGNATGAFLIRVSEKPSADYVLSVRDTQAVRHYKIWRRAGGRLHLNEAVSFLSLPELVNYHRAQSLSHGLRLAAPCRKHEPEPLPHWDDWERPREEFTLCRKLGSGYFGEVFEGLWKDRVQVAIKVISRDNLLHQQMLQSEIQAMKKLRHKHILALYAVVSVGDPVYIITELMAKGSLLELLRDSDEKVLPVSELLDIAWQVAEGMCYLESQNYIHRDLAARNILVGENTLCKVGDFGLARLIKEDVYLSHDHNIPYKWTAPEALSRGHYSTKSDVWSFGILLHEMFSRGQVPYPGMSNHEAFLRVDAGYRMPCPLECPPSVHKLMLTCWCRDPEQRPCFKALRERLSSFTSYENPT
Chain of MARK2 (Q7KZI7 whole entry): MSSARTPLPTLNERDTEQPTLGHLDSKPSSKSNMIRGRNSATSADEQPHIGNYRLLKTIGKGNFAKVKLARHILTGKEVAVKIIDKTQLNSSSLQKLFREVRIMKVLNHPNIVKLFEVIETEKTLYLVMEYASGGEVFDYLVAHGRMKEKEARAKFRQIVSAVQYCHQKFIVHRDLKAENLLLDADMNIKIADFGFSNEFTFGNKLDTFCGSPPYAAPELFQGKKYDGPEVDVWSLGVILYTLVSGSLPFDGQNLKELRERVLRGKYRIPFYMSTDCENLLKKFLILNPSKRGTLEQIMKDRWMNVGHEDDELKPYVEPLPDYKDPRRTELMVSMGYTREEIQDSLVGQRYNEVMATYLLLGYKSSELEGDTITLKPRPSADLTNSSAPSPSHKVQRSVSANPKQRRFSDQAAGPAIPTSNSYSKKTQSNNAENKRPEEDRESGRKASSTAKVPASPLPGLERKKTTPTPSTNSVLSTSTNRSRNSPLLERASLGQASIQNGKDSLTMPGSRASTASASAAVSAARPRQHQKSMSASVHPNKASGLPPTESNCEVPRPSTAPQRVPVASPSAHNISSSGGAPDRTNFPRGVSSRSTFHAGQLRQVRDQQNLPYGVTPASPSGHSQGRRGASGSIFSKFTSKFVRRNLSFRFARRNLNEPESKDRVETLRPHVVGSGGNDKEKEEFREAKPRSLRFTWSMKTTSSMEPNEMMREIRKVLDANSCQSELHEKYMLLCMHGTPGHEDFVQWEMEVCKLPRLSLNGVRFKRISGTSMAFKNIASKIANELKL
Chain of RSK1 (Q15418 whole entry, species assumed): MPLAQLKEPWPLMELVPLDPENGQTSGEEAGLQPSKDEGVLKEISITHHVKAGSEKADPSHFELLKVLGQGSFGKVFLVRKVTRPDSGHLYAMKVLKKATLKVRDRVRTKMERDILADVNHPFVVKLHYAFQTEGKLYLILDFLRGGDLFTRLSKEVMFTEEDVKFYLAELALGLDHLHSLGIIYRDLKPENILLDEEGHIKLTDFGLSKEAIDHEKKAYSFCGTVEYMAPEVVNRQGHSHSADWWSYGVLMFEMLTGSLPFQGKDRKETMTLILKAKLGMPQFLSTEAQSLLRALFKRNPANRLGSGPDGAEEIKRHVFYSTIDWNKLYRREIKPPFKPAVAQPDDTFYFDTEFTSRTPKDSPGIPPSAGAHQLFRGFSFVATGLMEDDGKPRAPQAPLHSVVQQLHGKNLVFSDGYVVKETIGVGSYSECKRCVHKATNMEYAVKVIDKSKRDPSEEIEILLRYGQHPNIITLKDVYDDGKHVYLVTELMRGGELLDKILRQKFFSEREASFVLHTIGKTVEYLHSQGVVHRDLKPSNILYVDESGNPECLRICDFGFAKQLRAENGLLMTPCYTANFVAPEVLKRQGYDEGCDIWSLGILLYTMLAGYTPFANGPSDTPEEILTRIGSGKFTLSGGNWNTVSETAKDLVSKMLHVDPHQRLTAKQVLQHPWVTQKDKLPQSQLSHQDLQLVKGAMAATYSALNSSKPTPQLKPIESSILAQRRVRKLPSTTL
Chain of VEG-FR (P17948 784-1338 limits assumed): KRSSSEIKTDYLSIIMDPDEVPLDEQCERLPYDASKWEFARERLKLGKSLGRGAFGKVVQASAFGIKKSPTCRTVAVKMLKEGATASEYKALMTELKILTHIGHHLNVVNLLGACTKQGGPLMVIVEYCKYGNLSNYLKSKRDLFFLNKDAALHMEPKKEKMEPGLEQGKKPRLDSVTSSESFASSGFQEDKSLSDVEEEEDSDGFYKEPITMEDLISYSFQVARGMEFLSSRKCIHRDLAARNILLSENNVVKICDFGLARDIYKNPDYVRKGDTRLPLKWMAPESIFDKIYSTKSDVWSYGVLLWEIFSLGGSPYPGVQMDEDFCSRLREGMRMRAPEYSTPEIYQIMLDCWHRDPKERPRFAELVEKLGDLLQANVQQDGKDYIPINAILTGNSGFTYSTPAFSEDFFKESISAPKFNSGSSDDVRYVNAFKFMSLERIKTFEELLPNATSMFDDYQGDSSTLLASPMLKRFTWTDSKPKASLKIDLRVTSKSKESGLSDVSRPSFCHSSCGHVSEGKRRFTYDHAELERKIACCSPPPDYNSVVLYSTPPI
Chain of ZAP70 (P43403 whole entry): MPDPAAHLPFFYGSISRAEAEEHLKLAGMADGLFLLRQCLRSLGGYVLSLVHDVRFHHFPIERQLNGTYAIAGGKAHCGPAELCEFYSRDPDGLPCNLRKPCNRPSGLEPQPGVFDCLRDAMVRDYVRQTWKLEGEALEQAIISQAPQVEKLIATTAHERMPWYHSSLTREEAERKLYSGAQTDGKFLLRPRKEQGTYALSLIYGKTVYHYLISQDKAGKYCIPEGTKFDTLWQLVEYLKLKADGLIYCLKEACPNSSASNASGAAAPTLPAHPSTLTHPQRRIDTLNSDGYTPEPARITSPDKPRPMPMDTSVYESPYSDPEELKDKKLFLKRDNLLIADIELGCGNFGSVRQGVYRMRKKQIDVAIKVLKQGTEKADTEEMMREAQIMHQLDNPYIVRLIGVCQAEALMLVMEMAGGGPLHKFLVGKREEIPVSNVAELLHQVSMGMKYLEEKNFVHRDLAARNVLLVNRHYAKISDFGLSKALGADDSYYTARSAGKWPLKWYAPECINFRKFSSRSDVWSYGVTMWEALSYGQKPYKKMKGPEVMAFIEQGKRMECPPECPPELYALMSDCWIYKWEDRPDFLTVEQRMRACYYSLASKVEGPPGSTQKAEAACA
Chain of DYRK2 (Q92630 whole entry): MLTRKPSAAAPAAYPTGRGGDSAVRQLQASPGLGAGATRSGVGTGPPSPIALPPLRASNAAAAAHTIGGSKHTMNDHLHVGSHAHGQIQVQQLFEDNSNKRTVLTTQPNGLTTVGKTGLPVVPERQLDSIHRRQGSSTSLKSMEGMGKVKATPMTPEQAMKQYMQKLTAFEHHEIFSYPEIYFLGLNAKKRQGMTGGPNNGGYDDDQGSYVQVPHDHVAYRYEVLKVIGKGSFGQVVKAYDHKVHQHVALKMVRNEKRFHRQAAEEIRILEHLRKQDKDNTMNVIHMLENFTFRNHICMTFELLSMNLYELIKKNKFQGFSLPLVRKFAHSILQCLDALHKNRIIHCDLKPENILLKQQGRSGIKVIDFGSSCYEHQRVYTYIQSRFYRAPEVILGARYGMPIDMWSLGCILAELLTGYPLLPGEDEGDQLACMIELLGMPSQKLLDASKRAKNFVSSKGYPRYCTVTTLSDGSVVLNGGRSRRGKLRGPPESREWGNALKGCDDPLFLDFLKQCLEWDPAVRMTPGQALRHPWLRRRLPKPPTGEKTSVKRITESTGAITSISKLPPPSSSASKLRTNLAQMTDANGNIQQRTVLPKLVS
Chain of MNK2 (Q9HBH9 whole entry): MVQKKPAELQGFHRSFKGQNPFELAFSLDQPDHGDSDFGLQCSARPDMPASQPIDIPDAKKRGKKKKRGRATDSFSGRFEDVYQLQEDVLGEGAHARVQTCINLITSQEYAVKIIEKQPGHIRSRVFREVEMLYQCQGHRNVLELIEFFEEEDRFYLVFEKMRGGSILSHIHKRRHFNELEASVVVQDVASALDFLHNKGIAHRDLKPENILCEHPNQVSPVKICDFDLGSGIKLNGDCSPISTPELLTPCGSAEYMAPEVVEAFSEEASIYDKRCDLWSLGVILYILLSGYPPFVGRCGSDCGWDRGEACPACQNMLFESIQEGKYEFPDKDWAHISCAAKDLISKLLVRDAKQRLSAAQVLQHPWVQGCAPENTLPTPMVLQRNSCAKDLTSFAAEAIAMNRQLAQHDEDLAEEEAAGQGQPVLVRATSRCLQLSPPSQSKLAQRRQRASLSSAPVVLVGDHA
Chain of PIM1 (P11309 whole entry): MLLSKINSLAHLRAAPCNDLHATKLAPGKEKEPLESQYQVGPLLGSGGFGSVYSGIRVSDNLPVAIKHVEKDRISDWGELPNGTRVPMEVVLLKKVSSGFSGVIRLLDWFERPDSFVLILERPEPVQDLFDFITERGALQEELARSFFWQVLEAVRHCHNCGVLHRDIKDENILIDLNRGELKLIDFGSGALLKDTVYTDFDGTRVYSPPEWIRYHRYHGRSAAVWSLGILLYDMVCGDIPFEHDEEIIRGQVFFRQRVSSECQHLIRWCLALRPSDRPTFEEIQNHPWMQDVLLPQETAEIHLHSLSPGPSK
Chain of Aurora A (O14965 whole entry): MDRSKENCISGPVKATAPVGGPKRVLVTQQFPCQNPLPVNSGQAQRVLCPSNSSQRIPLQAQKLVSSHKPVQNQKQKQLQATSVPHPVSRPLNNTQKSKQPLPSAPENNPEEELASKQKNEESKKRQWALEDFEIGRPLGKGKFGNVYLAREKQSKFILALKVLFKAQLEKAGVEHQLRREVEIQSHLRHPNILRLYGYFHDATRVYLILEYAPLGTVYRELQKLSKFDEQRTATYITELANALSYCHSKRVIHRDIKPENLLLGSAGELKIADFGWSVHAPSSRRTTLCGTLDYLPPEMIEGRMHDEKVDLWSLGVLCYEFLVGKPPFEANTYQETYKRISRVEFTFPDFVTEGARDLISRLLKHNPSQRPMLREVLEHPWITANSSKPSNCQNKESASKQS

## Cc1cccc(C)c1NC(=O)N1C/C=C\COc2cccc(c2)Nc2cc1ncn2 [Compound I-1]
[1]; [18]
  remaining activity at 0.1 µM: 115%
[1]; [19]
  remaining activity at 1 µM: 56%
[2]; [18]
  remaining activity at 0.1 µM: 103%
[2]; [19]
  remaining activity at 1 µM: 76%
[3]; [18]
  remaining activity at 0.1 µM: 55%
[3]; [19]
  remaining activity at 1 µM: 4%
[4]; [18]
  remaining activity at 0.1 µM: 102%
[4]; [19]
  remaining activity at 1 µM: 103%
[5]; [18]
  remaining activity at 0.1 µM: 98%
[5]; [19]
  remaining activity at 1 µM: 83%
[6]; [18]
  remaining activity at 0.1 µM: 90%
[6]; [19]
  remaining activity at 1 µM: 98%
[7]; [18]
  remaining activity at 0.1 µM: 49%
[7]; [19]
  remaining activity at 1 µM: 7%
[8]; [18]
  remaining activity at 0.1 µM: 102%
[8]; [19]
  remaining activity at 1 µM: 71%
[9]; [18]
  remaining activity at 0.1 µM: 103%
[9]; [19]
  remaining activity at 1 µM: 81%
[10]; [18]
  remaining activity at 0.1 µM: 104%
[10]; [19]
  remaining activity at 1 µM: 108%
[11]; [18]
  remaining activity at 0.1 µM: 102%
[11]; [19]
  remaining activity at 1 µM: 85%
[12]; [18]
  remaining activity at 0.1 µM: 98%
[12]; [19]
  remaining activity at 1 µM: 99%
[13]; [18]
  remaining activity at 0.1 µM: 99%
[13]; [19]
  remaining activity at 1 µM: 87%
[14]; [18]
  remaining activity at 0.1 µM: 132%
[14]; [19]
  remaining activity at 1 µM: 93%
[15]; [18]
  remaining activity at 0.1 µM: 36%
[15]; [19]
  remaining activity at 1 µM: 12%
[16]; [18]
  remaining activity at 0.1 µM: 92%
[16]; [19]
  remaining activity at 1 µM: 86%
[17]; [18]
  remaining activity at 0.1 µM: 107%
[17]; [19]
  remaining activity at 1 µM: 84%
